In the first assay the target is T1, BTK kinase (Homo sapiens, UniProt Q06187).
T1 construct: purchased Invitrogen PR5442A
T1 sequence (Q06187 whole entry): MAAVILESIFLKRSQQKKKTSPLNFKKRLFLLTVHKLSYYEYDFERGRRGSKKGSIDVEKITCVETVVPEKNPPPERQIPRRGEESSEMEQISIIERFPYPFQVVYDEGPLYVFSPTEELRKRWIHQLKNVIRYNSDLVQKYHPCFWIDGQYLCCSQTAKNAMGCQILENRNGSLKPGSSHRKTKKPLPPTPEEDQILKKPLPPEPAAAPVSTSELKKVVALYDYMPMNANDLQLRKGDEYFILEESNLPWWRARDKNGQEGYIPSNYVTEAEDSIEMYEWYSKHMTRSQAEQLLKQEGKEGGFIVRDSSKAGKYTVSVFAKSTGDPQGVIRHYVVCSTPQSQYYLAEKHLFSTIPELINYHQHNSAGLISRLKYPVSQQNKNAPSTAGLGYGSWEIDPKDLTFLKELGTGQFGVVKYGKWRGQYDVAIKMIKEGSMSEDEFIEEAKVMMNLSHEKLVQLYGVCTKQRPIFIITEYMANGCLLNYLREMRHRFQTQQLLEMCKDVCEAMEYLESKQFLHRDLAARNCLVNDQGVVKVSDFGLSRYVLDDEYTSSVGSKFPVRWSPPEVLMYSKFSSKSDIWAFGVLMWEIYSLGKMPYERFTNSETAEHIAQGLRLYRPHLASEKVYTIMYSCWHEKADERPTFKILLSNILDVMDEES
Nature of the assay: Assay of inhibition activity of BTK in vitro (HTRF kit, read on Envision). Type of assay: biochemical.
Details: not given
The method, then: Assay of Inhibition Activity of BTK In Vitro
The inhibition of compounds on BTK kinase was evaluated by […] detected by Envision, using the IC50 value of the compounds as index.
BTK kinase: Invitrogen-PR5442A
HTRF Assay Kit: Cisbio-62TKOPEJ
Plate for compound preparation: Greiner-781280
Cisbio HTRF Kit: Cisbio-62TKOPEJ
Centrifuge: Eppendorf-5810R
Bravo: Agilent Technologies-Bravo
Gradient Dilution of Compounds: […]
The test compound was dissolved with DMSO to be of 1 mM as a stock solution. Such a stock solution was diluted with DMSO by 10-fold, thereby obtaining an initial solution in a concentration of […] which was added into wells at the second column in a plate. 20 μL DMSO was added to other wells using Bravo. Then, 10 μL of the initial solution was transferred from wells at the second column to wells at the third column, followed by mixing obtained solution in the wells at the third column, thereby obtain a first diluted solution in a concentration of 1/3 μM. Subsequently, 10 μL of the first diluted solution was further transferred from wells at the third column to wells at the fourth column, followed by mixing obtained solution in the wells at the fourth column, thereby obtain a second diluted solution in a concentration of 1/9 μM. Such a three-fold serial dilution was performed 10 times, with 11 solutions in series diluted concentrations and a final diluted solution in a concentration of 0.017 nM obtained.
All diluted solutions were further diluted by 25-fold with ultrapure water, thus obtain test solutions, which were equilibrated at r.t. for 30 min before use.
To 2.5 μL of test solution, which was pipetted into each well of Assay plate using Bravo, 5 μL kinase mixture was added using the multi-channel pipettor. The mixture was centrifuged at 1000 rpm for 20 s, followed by incubation at 23° C. for 30 min. The reaction was initiated by 2.5 μL ATP mixture which was pipetted into the wells by Multidrop.
The reaction mixture of BTK kinase (10 μL) included 1.0 nM BTK, 1 μM biotin-TK1 peptide and 20 μM ATP. The reaction buffer included 50 mM Hepes (pH7.5), 10 mM MgCl2 and 0.01 mM […]. The kinase mixture was reacted in incubator at 23° C. for 90 mim.
The reaction was stopped by adding 10 μL Detection Reagent to each well of Assay plate, and the plate was left in incubator at 23° C. for 1 h before read on Envision.
Data analysis: The IC50 values of compounds were calculated using Excel fit.
The compound `CN1CCN(c2ccc(Nc3cc(-c4ccc5c(c4)c(C(=O)c4ccc(C6CC6)cc4F)cn5C)cn(C)c3=O)nc2)CC1` [Example 5] displayed an IC50 of 1 to 10 µM.
The same measure, in the same setting: the same measure for `CN1CCN(C)[C@H](c2ccc(Nc3nc(-c4ccc5c(c4)c(C(=O)c4ccc(C6CC6)cc4F)cn5C)cn(C)c3=O)cc2)C1=O` [Example 9]: 1 to 10 µM; for `CN1CCNC(=O)C1c1ccc(Nc2ccc(-c3ccc4c(c3)c(C(=O)c3ccc(C5CC5)cc3F)cn4C)n(C)c2=O)cc1` (stereo not shown) [Example 16]: 0.1 to 1 µM.

Staying with this assay, now noted: 1.0 nM BTK, 1 μM biotin-TK1 peptide, 20 μM ATP, 23° C., tested by Envision; read-out: BTK IC50.
Take `C=CC(=O)N1CCC[C@@H](Nc2ncnc(N)c2C(=O)c2ccc(Oc3ccccc3)cc2)C1` [Example 1]: the IC50 was 0.1 to 1 µM.
`C=CC(=O)N1CCC[C@@H](Nc2ncnc3[nH]c(=O)c(-c4ccccc4)cc23)C1` [Example 2]: the IC50 was in the range of 1 to 10 µM.
Still for that read-out and setting: for `C=CC(=O)N1CCC[C@@H](Nc2ncnc(N)c2C(=O)c2ccc(N(C)c3ccccc3)cc2)C1` [Example 3] the value was 1 to 10 µM; for `C=CC(=O)N1CCC[C@@H](Nc2ncnc(N)c2C(=O)c2ccc(Nc3ccccc3)cc2)C1` [Example 4], 1 to 10 µM.
Still for that read-out and setting: the same measure for `Cc1ccn2c(=O)c(-c3cccc(-c4cc(Nc5ccc(N6CCN(C)CC6)cn5)c(=O)n(C)c4)c3C)cnc2c1` [Example 6]: 1 to 10 µM; for `Cc1c(-c2cc(Nc3ccc(N4CCN(C)CC4)cn3)c(=O)n(C)c2)cccc1-c1ccc(-c2ccccc2)n(C)c1=O` [Example 7]: 1 to 10 µM; for `C=CC(=O)N1CCC[C@@H](Nc2ncnc3[nH]cc(-c4ccccc4)c(=O)c23)C1` [Example 8]: 1 to 10 µM.
Same read-out and setting: the same measure for `Cc1ccn2c(=O)c(-c3cccc(-c4cc(Nc5ccc(N6CCN(C)CC6)cn5)c(=O)n(C)c4)c3C)ccc2c1` [Example 10]: 1 to 10 µM.
As for `Cc1ccn2c(=O)c(-c3cccc(-c4cn(C)c(=O)c(Nc5ccc([C@@H]6C(=O)NCCN6C)cc5)n4)c3C)ccc2c1` [Example 11], the IC50 lay within 1 to 10 µM.
On the same count and under the same terms, the same measure for `Cc1c(-c2cc(Nc3ccc(C4C(=O)NCCN4C)cc3)c(=O)n(C)c2)cccc1-c1ccc(-c2ccccc2)n(C)c1=O` (stereo not shown) [Example 12]: 1 to 10 µM.
On the same count and under the same terms, for `C=CC(=O)Nc1cccc2c1cnn2-c1nc(Nc2ccc(OCCOC)cc2)ncc1F` [Example 13] the value was 1 to 10 µM.
Still for that read-out and setting: the same measure for `C=CC(=O)Nc1ccc2ncn(-c3nc(Nc4ccc(OCCOC)cc4)ncc3F)c2c1` [Example 14]: 1 to 10 µM; for `C=CC(=O)Nc1ccc2cnn(-c3ncnc(Nc4ccc(OCCOC)cc4)n3)c2c1` [Example 15]: 1 to 10 µM; for `C=CC(=O)N1CCC[C@@H](Nc2cc3ncc(-c4ccc(Oc5ccccc5)cc4)c(=O)n3cn2)C1` [Example 17]: 1 to 10 µM.
`C=CC(=O)N1CCC[C@@H](Nc2ncnc(N)c2-n2ncc3cc(Oc4ccccc4)ccc32)C1` [Example 18]: the IC50 fell in the range of 1 to 10 µM.
`C=CC(=O)N1CCC[C@@H](Nc2ncnc(N)c2-n2ncc3cc(OCCOC)ccc32)C1` [Example 19]: the IC50 fell in the range of 1 to 10 µM.
As to `C=CC(=O)N1CCCC(n2nc(-c3ccc(Oc4ccccc4)cc3)c3c(N)n[nH]c(=O)c32)C1` (stereo not shown) [Example 20], the IC50 was less than 0.1 µM.
Still for that read-out and setting: the same measure for `C=CC(=O)N1CCCC(c2nc3cnc(Nc4ccc(OCCOC)cc4)nc3[nH]2)C1` (stereo not shown) [Example 21]: 1 to 10 µM; for `C=CC(=O)Nc1ccc(-c2nc3cnc(Nc4ccc(OCCOC)cc4)nc3[nH]2)cc1` [Example 22]: less than 0.1 µM; for `COCCOc1ccc(Nc2ncc3[nH]c(CCN)nc3n2)cc1` [Example 23]: 1 to 10 µM.
As to `C=CC(=O)Nc1cccc(-n2cnc3cnc(Nc4ccc(OCCOC)cc4)nc32)c1` [Example 24], the IC50 was 1 to 10 µM.
Still for that read-out and setting: the same measure for `C=CC(=O)N1CCC[C@@H](Nc2ncnc(N)c2C(=O)c2ccc(Oc3ccccc3)cc2C)C1` [Example 25]: 0.1 to 1 µM; for `C=CC(=O)N1CCC[C@@H](Nc2ncnc(N)c2C(=O)c2ccc(Oc3ccccc3)cc2F)C1` [Example 26]: 1 to 10 µM.
Still for that read-out and setting: for `C=CC(=O)Nc1ccc2ncn(-c3ncnc(Nc4ccc(OCCOC)cc4)n3)c2c1` [Example 27] the value was 1 to 10 µM.
The same measure, in the same setting: the same measure for `C=CC(=O)N1CCC[C@@H](n2nc(-c3ccc(Oc4ccccc4)cc3)c3c(N)n[nH]c(=O)c32)C1` [Example 28]: less than 0.1 µM.
Regarding `C=CC(=O)Nc1cccc(-n2cnc3cnc(Nc4ccc(Oc5ccccc5)cc4)nc32)c1` [Example 29], the IC50 was 1 to 10 µM.
With `C=CC(=O)N1CCCC(n2c(=O)c(-c3ccc(Oc4ccccc4)cc3)cc3c(N)ncnc32)C1` (stereo not shown) [Example 30], the IC50 lay in the range of 0.1 to 1 µM.
Consider `C=CC(=O)N(C)CCn1nc(-c2ccc(Oc3ccccc3)cc2)c2c(N)n[nH]c(=O)c21` [Example 31], for which the IC50 was less than 0.1 µM.
Same read-out and setting: the same measure for `C=CC(=O)N1CCC[C@@H](n2nc(-c3ccc(Oc4ccccn4)cc3)c3c(N)n[nH]c(=O)c32)C1` [Example 32]: less than 0.1 µM; for `C=CC(=O)N1CCC[C@@H](n2nc(-c3ccc(OC4CC4)cc3)c3c(N)n[nH]c(=O)c32)C1` [Example 33]: less than 0.1 µM.
Same read-out and setting: for `CN(C)C/C=C/C(=O)N(C)CCn1nc(-c2ccc(Oc3ccccc3)cc2)c2c(N)n[nH]c(=O)c21` [Example 34] the value was less than 0.1 µM.
The same measure, in the same setting: for `C=CC(=O)N1CCC[C@@H](n2nc(-c3ccc(OC4CC5CC5C4)cc3)c3c(N)n[nH]c(=O)c32)C1` (stereo partly shown) [Example 35] the value was less than 0.1 µM.
As to `Nc1n[nH]c(=O)c2c1c(-c1ccc(Oc3ccccc3)cc1)nn2[C@@H]1CCCN(C(=O)/C=C/CN2CCOCC2)C1` [Example 36], the half-maximal inhibitory concentration (IC50) was less than 0.1 µM.
On the same count and under the same terms, for `C=CC(=O)N1CCC[C@H]1Cn1nc(-c2ccc(Oc3ccccc3)cc2)c2c(N)n[nH]c(=O)c21` [Example 37] the value was less than 0.1 µM; for `C=CC(=O)N1CCC[C@@H]1Cn1nc(-c2ccc(Oc3ccccc3)cc2)c2c(N)n[nH]c(=O)c21` [Example 38], less than 0.1 µM.
The same measure, in the same setting: for `C=CS(=O)(=O)N[C@H]1CC[C@@H](n2nc(-c3ccc(Oc4ccccn4)cc3)c3c(N)n[nH]c(=O)c32)CC1` [Example 39] the value was less than 0.1 µM.
On the same count and under the same terms, for `C=CC(=O)N[C@H]1CC[C@@H](n2nc(-c3ccc(OC4CC5CC5C4)cc3)c3c(N)n[nH]c(=O)c32)CC1` (stereo partly shown) [Example 41] the value was less than 0.1 µM; for `C=CC(=O)N1CCCC(Nc2ncnc(N)c2C(=O)c2ccc(Oc3ccccc3)cc2Cl)C1` (stereo not shown) [Example 42], 0.1 to 1 µM; for `C=CC(=O)N1CCC(n2nc(-c3ccc(Oc4ccccc4)cc3)c3c(N)n[nH]c(=O)c32)C1` (stereo not shown) [Example 43], less than 0.1 µM.
Take `C=CC(=O)N1CCC[C@@H](n2nc(-c3ccc(Oc4ccc(F)cn4)cc3)c3c(N)n[nH]c(=O)c32)C1` [Example 44]: the IC50 was less than 0.1 µM.
Same read-out and setting: for `CC#CC(=O)N1CCC[C@@H](n2nc(-c3ccc(Oc4ccccc4)cc3)c3c(N)n[nH]c(=O)c32)C1` [Example 45] the value was less than 0.1 µM; for `C=CC(=O)N1CC2(CC(n3nc(-c4ccc(Oc5ccccc5)cc4)c4c(N)n[nH]c(=O)c43)C2)C1` [Example 46], less than 0.1 µM.
Same read-out and setting: for `C=CC(=O)N1CCC[C@@H](n2nc(-c3ccc4c(cnn4-c4ccccc4)c3)c3c(N)n[nH]c(=O)c32)C1` [Example 47] the value was 1 to 10 µM; for `C=CC(=O)N1CCC[C@@H](n2nc(-c3ccc(-n4cc5ccccc5n4)cc3)c3c(N)n[nH]c(=O)c32)C1` [Example 48], less than 0.1 µM.
Take `C=CC(=O)N1CCC[C@@H](n2nc(-c3ccc(C4OCCO4)cc3)c3c(N)n[nH]c(=O)c32)C1` [Example 49]: the IC50 is less than 0.1 µM.
With `C=CC(=O)N1CCCC(n2nc(-c3ccc(Oc4ccccc4)cc3)c3c(N)nn(CCO)c(=O)c32)C1` (stereo not shown) [Example 50], the IC50 lay in the range of 0.1 to 1 µM.
Still for that read-out and setting: the same measure for `C=CC(=O)N1CCCCC(n2nc(-c3ccc(Oc4ccccc4)cc3)c3c(N)n[nH]c(=O)c32)C1` (stereo not shown) [Example 51]: less than 0.1 µM.
`C=CC(=O)N1CCCC(n2nc(-c3ccc(Oc4ccccc4)cc3)c3c(N)nn(C4CC4)c(=O)c32)C1` (stereo not shown) [Example 52]: the IC50 is less than 0.1 µM.
Take `C=CC(=O)N1CCC[C@@H](n2cc(-c3ccc(Oc4ccccc4)cc3)c3c(N)n[nH]c(=O)c32)C1` [Example 53]: the IC50 was less than 0.1 µM.
The same measure, in the same setting: the same measure for `C=CC(=O)N1CCCC(n2nc(-c3ccc(Oc4ccccc4C)cc3)c3c(N)n[nH]c(=O)c32)C1` (stereo not shown) [Example 54]: less than 0.1 µM; for `C=CC(=O)N1CCCC(n2nc(-c3ccc(Oc4ccc(C)cc4)cc3)c3c(N)n[nH]c(=O)c32)C1` (stereo not shown) [Example 55]: less than 0.1 µM.
In the case of `C=CC(=O)N1CCCC(n2nc(-c3ccc(Oc4cccc(F)c4)cc3)c3c(N)n[nH]c(=O)c32)C1` (stereo not shown) [Example 56], the IC50 was less than 0.1 µM.

(Values after patent US10662174B2, “BTK inhibitor” (Hubei Bio-Pharmaceutical Industrial Technological Institute …, priority 2015, dated 2020).)
